In patent publication US20250281453A1, “COMBINATION THERAPIES COMPRISING QTX125” (QUIMATRYX, S.L., priority 2022, published 2025):
pEC50: −log10 of the molar value.

What was measured:
Test in all cases: QTX125-containing combination therapy, hexosaminidase cell viability
Format in all cases: cell-based
[1] = system: Panc-1 pancreatic cancer cells; details: for pEC50: Homo sapiens, PANC-1, Panc-1; for combination index (C.I): Panc-1
Description: (§1) To assess the oncolytic efficacy of QTX125-containing combination therapies in vitro, colonic, pancreatic, hepatic and ovarian tumour cells were administered sorafenib, gemcitabine or bortezomib at EC25, EC50 and EC75 doses. QTX125 was co-administered in order to produce a dose response curve.
(§2) To prepare cells for viability assays, cells were transferred into 96 well tissue culture plates (Cultek), and resuspended in 100 µL at the following densities: 10,000 cells/well (Hep-G2 and MiaPaCa-2), 5000 cells/well (Panc-1 and SK-OV-3) or 3000 cells/well (HCT-116). Following 24 hours of incubation, media was removed and replaced with 100 µL media spiked with QTX125 and the test chemotherapeutic agents. Stock solutions for the agents used in this study are shown below in Table 1. Cells were incubated for a further 72 hours before cell viability was assessed using both ALAMAR® and hexosaminidase assays.
(§3) For the hexosaminidase assay, media containing QTX125 and the test chemotherapeutic agents was removed, and cells were washed once with PBS. 60 μL of substrate solution (containing: 7.5 mM p-nitrophenol-N-acetyl-beta-D-glucosamide [Sigma N-9376], 0.1 M sodium citrate, pH 5.0 and 0.25% Triton X-100) was added to each well and cells were incubated at 37° C. for at least 1 hour. Incubating cells in this manner causes the substrate solution to become bright yellow, at which point 90 μL of developer solution (containing 50 mM Glycine pH 10.4 and 5 mM EDTA) was added to each well. Absorbance at 410 nm was recorded using a plate reader.
(§4) Control values were normalised to 100% and percentage (%) viability was calculated. Data were used to plot log dose-response curves using a sigmoid dose-response (variable slope) equation. EC50 values were obtained using Equation 1, where ‘X’ is the logarithmic concentration; ‘Y’ is the response output and it is assumed that Y starts at bottom of the graph and reaches the top with an overall sigmoid shape.
(§5) Cls were obtained using Equation 2, where (Dm) 1 is the ECx concentration of QTX125 and (D) 1 is the ECx concentration of QTX125 in the presence of sorafenib, gemcitabine or bortezomib.
(§6) In order to assess the oncolytic efficacy of QTX125-containing combination therapies, monotherapy EC25, EC50 and EC75 doses for sorafenib, gemcitabine and bortezomib were calculated (as per Experiment 3) and administered to wells at these fixed concentrations. QTX125 was co-administered at a range of concentrations, in order to plot a dose-response curve such that the EC50 dose of QTX125 could be calculated in the presence of sorafenib/gemcitabine/bortezomib. QTX125 was administered to cells at a starting high-dose, and a 1:1 dilution was completed thereafter. In this part of the study, only the hexosaminidase assay was employed to assess cell viability following treatment with QTX125-containing combination therapies.
(§7) It should be noted that it was not possible to determine the appropriate concentrations for gemcitabine in all cell lines tested. In cells resistant to gemcitabine, nominal concentrations were used in place of EC25, EC50 and EC75 doses (e.g., nominal doses of 1, 10 and 100 µM were used in Panc-1 and Hep-G2 cells).

[2] = system: HCT-116 colonic cancer cells; details: for combination index (C.I.): HCT-116; for pEC50: Homo sapiens, HCT-116, HCT-116
Description: as §1, §2, §3, §4, §5, §6, §7

[3] = system: Hep-G2 hepatic cancer cells; details: for combination index (C.I): Hep-G2; for pEC50: Homo sapiens, HepG2, Hep-G2
Description: as §1, §2, §3, §4, §5, §6, §7

[4] = system: MiaPaCa-2 pancreatic cancer cells; details: for pEC50: Homo sapiens, MIA PaCa-2, MiaPaCa-2; for combination index (C.I.): MiaPaCa-2
Description: as §1, §2, §3, §4, §5, §6, §7

[5] = + bortezomib at EC25 dose (0.007 μM)
[6] = + bortezomib at EC50 dose (0.009 μM)
[7] = + bortezomib at EC75 dose (0.015 μM)
[8] = + gemcitabine at EC25, nominal dose 1 μM
[9] = + gemcitabine at EC50, nominal dose 10 μM
[10] = + gemcitabine at EC75, nominal dose 100 μM
[11] = + sorafenib at EC25 dose (4.1 μM)
[12] = + sorafenib at EC50 dose (7.4 μM)
[13] = + sorafenib at EC75 dose (15 μM)
[14] = + bortezomib at EC25 dose (0.005 μM)
[15] = + bortezomib at EC50 dose (0.007 μM)
[16] = + bortezomib at EC75 dose (0.01 μM)
[17] = + gemcitabine at EC25 dose (0.001 μM)
[18] = + sorafenib at EC25 dose (2 μM)
[19] = + sorafenib at EC50 dose (3.6 μM)
[20] = + sorafenib at EC75 dose (6.5 μM)
[21] = + bortezomib at EC25 dose (0.014 μM)
[22] = + bortezomib at EC50 dose (0.016 μM)
[23] = + bortezomib at EC75 dose (0.026 μM)
[24] = + sorafenib at EC25 dose (0.9 μM)
[25] = + sorafenib at EC50 dose (2.5 μM)
[26] = + sorafenib at EC75 dose (6.4 μM)
[27] = + bortezomib at EC75 dose (0.014 μM)
[28] = + gemcitabine at EC25 dose (0.01 μM)
[29] = + gemcitabine at EC50 dose (0.1 μM)
[30] = + gemcitabine at EC75 dose (1 μM)
[31] = + sorafenib at EC25 dose (4.2 μM)
[32] = + sorafenib at EC50 dose (6.8 μM)
[33] = + sorafenib at EC75 dose (10.3 μM)

SMILES: O=C(NO)c1ccc(CNC(=O)c2[nH]c(-c3ccc(O)cc3)cc2-c2ccoc2)cc1 [QTX125, 3-(3-Furyl)-N-{4-[(hydroxyamino)carbonyl]benzyl}-5-(4-hydroxyphenyl)-1 Hpyrrole-2-carboxamide]
- pEC50 [1, 5]: 5.30
- pEC50 [1, 6]: 5.26
- pEC50 [1, 7]: 5.84
- pEC50 [1, 8]: 5.39
- pEC50 [1, 9]: 5.61
- pEC50 [1, 10]: 5.71
- pEC50 [1, 11]: 4.86
- pEC50 [1, 12]: 4.85
- pEC50 [1, 13]: 5.53
- pEC50 ([1]; no second agent (control of Table 5.5.1)): 4.99
- pEC50 ([1]; no second agent (control of Table 5.5.2)): 4.83
- pEC50 ([1]; no second agent (control of Table 5.5.3)): 4.74
- combination index (C.I) [1, 5]: 0.3 arbitrary units
- combination index (C.I) [1, 6]: 0.3 arbitrary units
- combination index (C.I) [1, 7]: 0.1 arbitrary units
- combination index (C.I) [1, 8]: 0.3 arbitrary units
- combination index (C.I) [1, 9]: 0.2 arbitrary units
- combination index (C.I) [1, 10]: 0.1 arbitrary units
- combination index (C.I) [1, 11]: 1.3 arbitrary units
- combination index (C.I) [1, 12]: 1.4 arbitrary units
- combination index (C.I) [1, 13]: 0.3 arbitrary units
- combination index (C.I.) [2, 14]: 1.0 arbitrary units
- combination index (C.I.) [2, 15]: 1.1 arbitrary units
- combination index (C.I.) [2, 16]: 0.9 arbitrary units
- combination index (C.I.) [2, 17]: 1.1 arbitrary units
- combination index (C.I.) [2, 18]: 0.9 arbitrary units
- combination index (C.I.) [2, 19]: 0.9 arbitrary units
- combination index (C.I.) [2, 20]: 0.9 arbitrary units
- pEC50 [2, 14]: 5.61
- pEC50 [2, 15]: 5.60
- pEC50 [2, 16]: 5.67
- pEC50 [2, 17]: 6.49
- pEC50 [2, 18]: 5.63
- pEC50 [2, 19]: 5.66
- pEC50 [2, 20]: 5.65
- pEC50 ([2]; no second agent (control of Table 5.1.1)): 5.59
- pEC50 ([2]; no second agent (control of Table 5.1.2)): 6.52
- pEC50 ([2]; no second agent (control of Table 5.1.3)): 5.63
- combination index (C.I) [3, 21]: 0.4 arbitrary units
- combination index (C.I) [3, 22]: 0.2 arbitrary units
- combination index (C.I) [3, 23]: 0.2 arbitrary units
- combination index (C.I) [3, 8]: 0.6 arbitrary units
- combination index (C.I) [3, 9]: 0.2 arbitrary units
- combination index (C.I) [3, 10]: 0.05 arbitrary units
- combination index (C.I) [3, 24]: 0.5 arbitrary units
- combination index (C.I) [3, 25]: 0.4 arbitrary units
- combination index (C.I) [3, 26]: 0.5 arbitrary units
- pEC50 [3, 21]: 6.63
- pEC50 [3, 22]: 6.89
- pEC50 [3, 23]: 7.04
- pEC50 [3, 8]: 6.13
- pEC50 [3, 9]: 6.70
- pEC50 [3, 10]: 7.25
- pEC50 [3, 24]: 7.06
- pEC50 [3, 25]: 7.13
- pEC50 [3, 26]: 7.06
- pEC50 ([3]; no second agent (control of Table 5.3.1)): 6.72
- pEC50 ([3]; no second agent (control of Table 5.3.2)): 5.92
- pEC50 ([3]; no second agent (control of Table 5.3.3)): 6.26
- pEC50 [4, 5]: 6.62
- pEC50 [4, 6]: 6.62
- pEC50 [4, 27]: 6.61
- pEC50 [4, 28]: 6.88
- pEC50 [4, 29]: 6.95
- pEC50 [4, 30]: 7.34
- pEC50 [4, 31]: 6.59
- pEC50 [4, 32]: 6.55
- pEC50 [4, 33]: 6.59
- pEC50 ([4]; no second agent (control of Table 5.2.1)): 6.67
- pEC50 ([4]; no second agent (control of Table 5.2.2)): 6.84
- pEC50 ([4]; no second agent (control of Table 5.2.3)): 6.64
- combination index (C.I.) [4, 5]: 1.0 arbitrary units
- combination index (C.I.) [4, 6]: 1.0 arbitrary units
- combination index (C.I.) [4, 27]: 1.1 arbitrary units
- combination index (C.I.) [4, 28]: 0.9 arbitrary units
- combination index (C.I.) [4, 29]: 0.8 arbitrary units
- combination index (C.I.) [4, 30]: 0.3 arbitrary units
- combination index (C.I.) [4, 31]: 1.2 arbitrary units
- combination index (C.I.) [4, 32]: 1.3 arbitrary units
- combination index (C.I.) [4, 33]: 1.2 arbitrary units
